According to paper PMC10986598, “Investigating inhibitors of 1-deoxy-D-xylulose 5-phosphate synthase in a mouse model of UTI” (Microbiology Spectrum, 2024):
Like-named read-outs stand apart in the source and are kept apart here.

Legend:
[1] = In vitro stability in mouse liver microsomes; type: in vitro ADME
Method: Figure S1. Percent BAP or pro-hpAP remaining after incubation in mouse liver microsomes (+/-NADPH) (a), mouse plasma (b), or mouse liver homogenates (c). Data shown as bar graphs in Figure 4.

[2] = In vivo PK studies in CD-1 mice
Method: For pharmacokinetic analysis, both male (n = 2) and female (n = 2) CD1 mice were dosed with either BAP or pro-hpAP by intraperitoneal (IP) route or administration (100 mg/kg) and (30 mg/kg), respectively. Blood and tissue samples were collected at predetermined time points (0–6 h post-dose). Plasma was generated from blood by low-speed centrifugation (3,000 × g), and all samples were stored at −80°C until bioanalysis.
Non-compartmental-analysis module in WinNonlin was used to assess blood pharmacokinetic parameters including max concentrations (Cmax), time to Cmax (Tmax), area under the curve (AUC), area extrapolated to infinity (AUC0–∞), and terminal half-life (t1/2). In addition, the tissue penetration index was measured as the ratio of AUCtissue to AUCplasma.
To quantify BAP and pro-hpAP, methanol containing 0.5 µM losartan as an internal standard was added 5 µL/µL plasma or 5 µL/mg tissue in microcentrifuge tubes. Tissue was further homogenized using a Spex Geno/Grinder with stainless steel beads for 3 min at 1,500 RPM. Homogenates from untreated animals were spiked with the analytes from 100 to 0.01 nmol/g tissue by serial dilution to generate a standard curve. Plasma and tissue homogenates were then vortexed and centrifuged (16,000 × g for 5 min at 4°C) to precipitate proteins. Supernatants were transferred to a 96 well plate and 2 µL was injected on a Accela 1250 LC coupled to a Vantage triple quadrupole mass spectrometer (Thermo Fisher Scientific Inc., Waltham MA). Samples were separated on an Agilent EclipsePlus C18 RRHD (1.8 µm) 2.1 × 100 mm column with mobile phases consisting of water +0.1% formic acid (A), and acetonitrile + 0.1% formic acid (B). […] Samples were introduced to the source through heated ion spray with the capillary temperature setting at 350°C, spray voltage of 4 kV and S-Lens RF of 51. Nitrogen was used as the sheath and auxiliary gas with the settings of 50 and 1 arbitrary units, respectively. For BAP, the instrument was operated in negative ion mode scanning for transitions of 179.1 > 63.1, 79.1 (BAP) and 420.9 > 179.1, 127.0 (losartan) which were acquired with collision energies setting of 17; 55 and 25; 41 CE, respectively. For pro-hpAP, the instrument was operated in positive ion mode scanning for transitions of 346.2 to 86.1 and 143.2 (pro-hpAP) and 422.9 to 207.1 and 180.1 (losartan) which were acquired with collision energies setting of 29; 17 and 37; 22 CE, respectively. Peaks were quantified with Xcalibur software.

[3] = Bladder, single 100 mg/kg IP dose of BAP
[4] = Brain, single 100 mg/kg IP dose of BAP
[5] = Kidney, single 100 mg/kg IP dose of BAP
[6] = Plasma, single 100 mg/kg IP dose of BAP

For `CCCCOP(=O)(O)C(C)=O` [BAP, butyl acetylphosphonate], which “% remaining in liver microsomes” value ([1]; at 1 h) is on record?
Its value is 94%.

What about the AUC(0-t) [2, 3] of the same compound?
Its AUC(0-t) is 1990 ± 110 µM·h.

And the Cmax [2, 3]?
The Cmax was 1840 ± 230 µM.

What about the Tmax [2, 3] of the same compound?
Its Tmax is 4.8 min.

And the AUC(0-t) [2, 4]?
Its AUC(0-t) is 12.5 ± 1.8 µM·h.

What about the Cmax [2, 4] of the same compound?
The Cmax was 16.2 ± 2.6 µM.

What about the AUC(0-t) [2, 5] of the same compound?
The AUC(0-t) was 136 ± 7 µM·h.

And the Cmax [2, 5]?
Its Cmax is 298 ± 37 µM.

And the Tmax [2, 5]?
The Tmax was 4.8 min.

And the AUC(0-t) [2, 6]?
The AUC(0-t) was 233 ± 27 µM·h.

What about the Cmax [2, 6] of the same compound?
The Cmax was 650 ± 190 µM.

What about the Tmax [2, 6] of the same compound?
Its Tmax is 4.8 min.

And the AUC ([2]; bladder, BAP 100 mg/kg IP)?
Its AUC is 1,990 ± 110 nmol h/g.

What about the AUC ([2]; brain, BAP 100 mg/kg IP) of the same compound?
The AUC was 12.5 ± 1.8 nmol·h/g.

What about the AUC ([2]; kidney, BAP 100 mg/kg IP) of the same compound?
The AUC was 136 ± 7 nmol·h/g.

And the AUC ([2]; plasma, BAP 100 mg/kg IP)?
Its AUC is 233 ± 27 nmol·h/mL.

For `C#CCCOP(=O)(O)C(=C)NC(=O)C(CC(C)C)NC(=O)CN` (stereo not drawn) [pro-hpAP], which remaining at 1 h [1] is on record?
The remaining at 1 h was 90%.

What about the AUC ([2]; bladder, pro-hpAP 30 mg/kg IP, analyte = labelled substance (pro-hpAP or released hpAP)) of the same compound?
Its AUC is 6.2 ± 1.3 nmol·h/g.

What about the Cmax ([2]; both sexes, CD1, mouse, Bladder, single 30 mg/kg IP dose of pro-hpAP, analyte = labelled substance) of the same compound?
Its Cmax is 24.3 ± 8.5 µM.

And the AUC(0-t) ([2]; both sexes, CD1, mouse, Bladder, single 30 mg/kg IP dose of pro-hpAP, analyte = labelled substance, read-out: AUC0-t)?
The AUC(0-t) was 6.2 ± 1.3 µM·h.

And the Tmax ([2]; both sexes, CD1, mouse, Bladder, single 30 mg/kg IP dose of pro-hpAP, analyte = labelled substance, read-out: Tmax)?
The Tmax was 4.8 min.

What about the Cmax ([2]; both sexes, CD1, mouse, Brain, single 30 mg/kg IP dose of pro-hpAP, analyte = labelled substance) of the same compound?
Its Cmax is 0.134 ± 0.036 µM.

And the AUC(0-t) ([2]; both sexes, CD1, mouse, Brain, single 30 mg/kg IP dose of pro-hpAP, analyte = labelled substance, read-out: AUC0-t)?
Its AUC(0-t) is 0.115 ± 0.014 µM·h.

What about the Tmax ([2]; both sexes, CD1, mouse, Brain, single 30 mg/kg IP dose of pro-hpAP, analyte = labelled substance, read-out: Tmax) of the same compound?
Its Tmax is 4.8 min.

And the Cmax ([2]; both sexes, CD1, mouse, Kidney, single 30 mg/kg IP dose of pro-hpAP, analyte = labelled substance)?
Its Cmax is 0.715 ± 0.09 µM.

And the AUC(0-t) ([2]; both sexes, CD1, mouse, Kidney, single 30 mg/kg IP dose of pro-hpAP, analyte = labelled substance, read-out: AUC0-t)?
The AUC(0-t) was 0.516 ± 0.048 µM·h.

What about the Tmax ([2]; both sexes, CD1, mouse, Kidney, single 30 mg/kg IP dose of pro-hpAP, analyte = labelled substance, read-out: Tmax) of the same compound?
The Tmax was 4.8 min.

And the Cmax ([2]; both sexes, CD1, mouse, Plasma, single 30 mg/kg IP dose of pro-hpAP, analyte = labelled substance (pro-hpAP or released hpAP))?
Its Cmax is 20.2 ± 1.9 µM.

And the AUC(0-t) ([2]; both sexes, CD1, mouse, Plasma, single 30 mg/kg IP dose of pro-hpAP, analyte = labelled substance, read-out: AUC0-t)?
The AUC(0-t) was 3.2 ± 0.21 µM·h.

And the Tmax ([2]; both sexes, CD1, mouse, Plasma, single 30 mg/kg IP dose of pro-hpAP, analyte = labelled substance, read-out: Tmax)?
Its Tmax is 4.8 min.

What about the AUC ([2]; both sexes, CD1, mouse, plasma, pro-hpAP 30 mg/kg IP, analyte = labelled substance, read-out: AUC) of the same compound?
The AUC was 3.2 ± 0.21 nmol·h/mL.

And the AUC ([2]; brain, pro-hpAP 30 mg/kg IP, analyte = labelled substance)?
Its AUC is 0.115 ± 0.014 nmol·h/g.

What about the AUC ([2]; kidney, pro-hpAP 30 mg/kg IP, analyte = labelled substance) of the same compound?
Its AUC is 0.516 ± 0.048 nmol·h/g.
